Experimental data: article PMC3419744, “Anti-Tumor Activity of a Novel HS-Mimetic-Vascular Endothelial Growth Factor Binding Small Molecule” (PLoS ONE, 2012)
Entries after “also recorded” stand apart in the source; their conditions may differ. Where two headings read alike, the source gives them in different places.

Tests used:
LM8 cells = assay: Proliferation assay (TetraColor One), LM8 cells; assay type: cell-based, murine; conditions: for IC50: 48 h, NS = not significant, read-out: IC50, inhibition of proliferation, LM8
Procedure: (§1) Two tumor cell lines such as LM8, LM8G7, and UV♀2 endothelial were used to evaluate the anti-proliferative activity of the compounds. UV♀2 (1×10^4 cells) or LM8 or LM8G7 cells (5×10^3 cells) were seeded in 96-well plate and incubated overnight at 37°C. […] 5 µL of TetraColor One reagent was added and incubated for an additional 2–4 h and the absorbance at 450 nm (Bio-Rad) was measured. […] The results were expressed as a percentage of viable cells relative to cells treated with DMSO. The viability of the cells was expressed in percentage terms and IC50 value was calculated.

VEGF = target: T1, VEGF (Homo sapiens, UniProt P15692); assay: SPR imaging of immobilized small molecules binding to VEGF; conditions: compounds immobilized on chip, growth factor 50 µg/mL
T1 construct: purchased Wako Pure Chemicals Co. (Osaka, Japan)
T1 sequence (P15692 1-191 isoform P15692-4): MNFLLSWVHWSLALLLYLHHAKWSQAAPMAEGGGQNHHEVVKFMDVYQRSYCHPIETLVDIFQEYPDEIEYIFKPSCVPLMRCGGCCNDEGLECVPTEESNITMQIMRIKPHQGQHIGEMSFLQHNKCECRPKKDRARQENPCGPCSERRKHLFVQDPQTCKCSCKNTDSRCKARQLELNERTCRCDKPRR
Procedure: (§2) The chip was washed successively with ethanol, water, and ethanol. Then the chip is air dried to obtain the photo reactive chip. The compounds 1–9 were spotted on the chip (10 mM), washed, and dried in vacuo, and then irradiated at 365 nm under a UV transmission filter (Sigma-Koki, Japan). The compounds were immobilized onto the photo-reactive linker that bound to the gold-surface of the glass chip was set into an SPR imaging instrument (TOYOBO), and each growth factor (50 µg/mL) was injected onto the array surface at 0.1 ml/min and incubated for 10 min. The SPR image and signal data were collected with an SPR analysis program (TOYOBO). The SPR difference image was constructed by using the Scion Image program (Scion, MD).

UV♀2 cells = assay: Proliferation assay (TetraColor One), UV♀2 endothelial cells; assay type: cell-based, mouse; conditions: for IC50: 48 h, serum-containing conditions (10%FBS), NS = not significant, read-out: IC50, inhibition of proliferation, UV♀2
Procedure: as §1

[1] = target: T2, VEGF165 binding to immobilised heparin (Homo sapiens, UniProt P15692); assay: BIAcore analysis of VEGF165 binding to immobilised heparin; conditions: VEGF165 250 nM
T2 construct: purchased Wako Pure Chemicals Co. (Osaka, Japan)
T2 sequence (P15692 1-191 isoform P15692-4): T1 sequence (P15692 1-191 isoform P15692-4)
Procedure: The heparin-immobilized sensor chip was prepared as reported earlier. […] The flow rate was kept at a moderate speed ([…]) according to the manufacturer's recommendations.

LM8G7 cells = assay: Proliferation assay (TetraColor One), LM8G7 cells; assay type: cell-based, murine; conditions: for IC50: NS = not significant, read-out: IC50, inhibition of proliferation, LM8G7
Procedure: as §1

FGF-2 = target: T3, FGF-2 (Homo sapiens, UniProt P09038); assay: SPR imaging of immobilized small molecules binding to FGF-2; conditions: compounds immobilized on chip, growth factor 50 µg/mL
T3 construct: purchased Wako Pure Chemicals Co. (Osaka, Japan)
Procedure: as §2

[2] = Mus musculus, LM8G7, 48 h, 48 h

T3 sequence (P09038 134-288): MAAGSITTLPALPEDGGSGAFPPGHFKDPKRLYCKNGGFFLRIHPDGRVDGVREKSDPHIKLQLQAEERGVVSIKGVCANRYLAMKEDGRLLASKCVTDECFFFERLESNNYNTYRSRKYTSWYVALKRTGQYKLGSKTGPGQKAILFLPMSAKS

## Fc1cccc(F)c1C=Nn1c(S)nnc1-c1ccccc1 [compound 7, 4-[(2,6-difluoro-benzylidene)-amino]-5-phenyl-4H-[1,2,4]triazole-3-thiol]
LM8 cells; Mus musculus
  IC50: > 100 µM
VEGF
  binding to VEGF (SPR signal): does not bind VEGF
UV♀2 cells; Mus musculus, Endothelial cell
  IC50: > 100 µM
[1]
  inhibition of binding of VEGF165 to immobilised heparin: failed to inhibit the binding of VEGF to heparin
LM8G7 cells; [2]
  IC50: > 100 µM

## Cc1nnc(S)n1N=Cc1c(F)cccc1F [compound 5, 4-[(2,6-Difluoro-benzylidene)-amino]-5-methyl-4H-[1,2,4]triazole-3-thiol]
LM8 cells; Mus musculus
  IC50: 36 ± 6.4 µM
UV♀2 cells; Mus musculus, Endothelial cell
  IC50: 45 ± 2.1 µM
LM8G7 cells; [2]
  IC50: > 100 µM

## CCc1nnc(S)n1N=Cc1c(F)cccc1F [compound 6, 4-[(2,6-Difluoro-benzylidene)-amino]-5-ethyl-4H-[1,2,4]triazole-3-thiol]
LM8 cells; Mus musculus
  IC50: 64 ± 6.7 µM
VEGF
  binding to VEGF (SPR signal): significantly; also recorded: weak binding
UV♀2 cells
  effect on proliferation of UV♀2 cells (in words): moderately inhibited
UV♀2 cells; Mus musculus, Endothelial cell
  IC50: 14 ± 4.6 µM
LM8G7 cells; [2]
  IC50: 23 ± 0.5 µM

## Cc1ccc(C(=O)Nc2ccc(S(=O)(=O)O)c3cc(S(=O)(=O)O)cc(S(=O)(=O)O)c23)cc1NC(=O)c1cccc(NC(=O)Nc2cccc(C(=O)Nc3cc(C(=O)Nc4ccc(S(=O)(=O)O)c5cc(S(=O)(=O)O)cc(S(=O)(=O)O)c45)ccc3C)c2)c1 [Suramin, reference compound]
LM8 cells
  inhibition of proliferation of LM8 cells (in words): comparable with the inhibitory activity of compound 8
LM8 cells; Mus musculus
  IC50: 12 ± 2.8 µM
UV♀2 cells; Mus musculus, Endothelial cell
  IC50: 34 ± 1.4 µM
LM8G7 cells
  inhibition of proliferation of LM8G7 cells (in words): comparable with the inhibitory activity of compound 8
LM8G7 cells; Mus musculus, LM8G7, 48 h
  IC50: 14 ± 24 µM

## N.N.[Cl][Pt][Cl] [Cisplatin, reference compound]
LM8 cells
  IC50: 30 ± 24 µM
UV♀2 cells
  IC50: 12 ± 0.4 µM
LM8G7 cells; 48 h
  IC50: 15 ± 0.6 µM

## CCCCc1nc(Cl)c(C=O)n1Cc1ccc([N+](=O)[O-])cc1 [compound 8, 2-butyl-5-chloro-3-(4-nitro-benzyl)-3H-imidazole-4-carbaldehyde]
FGF-2
  binding to FGF-2 (SPR signal): significantly, although with weaker affinity compared to its VEGF binding; also recorded: weakly
VEGF
  binding to VEGF (SPR signal): very strongly; also recorded: strongly
[1]
  inhibition of binding of VEGF165 to immobilised heparin: inhibited the binding of VEGF165 to the immobilised heparin

## CCCCc1nc(Cl)c(C=O)n1Cc1cc2c(cc1C)OCO2 [compound 9]
LM8 cells
  IC50: 46 ± 6.7 µM
UV♀2 cells
  IC50: > 100 µM
LM8G7 cells; 48 h
  IC50: > 100 µM
